Reference: ChEMBL document CHEMBL1201862, “PubChem BioAssay data set” (2004)
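Tested at 5 concentrations; 48 h exposure; 96-well plates; endpoints linearly interpolated, else capped at highest concentration. GI50 is the concentration that inhibits growth by half.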 Calls of active or inactive are those of the source. Rule as the data show it: active = GI50 up to about 1.1 µM and inactive = higher.

Key:
Test in all cases: growth of human tumour cells (NCI), 48 h
HCT-116 = system: HCT-116
MCF7 = system: MCF7
SK-MEL-28 = system: SK-MEL-28
MDA-N = system: MDA-N
A498 = system: A498
CCRF-CEM = system: CCRF-CEM
SK-OV-3 = system: SK-OV-3
CAKI-1 = system: CAKI-1
UACC-62 = system: UACC-62
Malme-3M = system: Malme-3M
SF-539 = system: SF-539
K562 = system: K562
SK-MEL-2 = system: SK-MEL-2
HL-60 = system: HL-60
KM12 = system: KM12
NCI-H23 = system: NCI-H23
ACHN = system: ACHN
SNB-19 = system: SNB-19
LOX IMVI = system: LOX IMVI
IGROV-1 = system: IGROV-1

| SMILES | GI50 (HCT-116) | GI50 (MCF7) | GI50 (SK-MEL-28) | GI50 (MDA-N) | GI50 (A498) | GI50 (CCRF-CEM) | GI50 (SK-OV-3) | GI50 (CAKI-1) | GI50 (UACC-62) | GI50 (Malme-3M) | GI50 (SF-539) | GI50 (K562) | GI50 (SK-MEL-2) | GI50 (HL-60) | GI50 (KM12) | GI50 (NCI-H23) | GI50 (ACHN) | GI50 (SNB-19) | GI50 (LOX IMVI) | GI50 (IGROV-1) |
| --- | --- | --- | --- | --- | --- | --- | --- | --- | --- | --- | --- | --- | --- | --- | --- | --- | --- | --- | --- | --- |
| C/C(=C/c1ccccc1)CN(C(=O)/C=C\Sc1ccccc1)C(C)(C)C | 24.8 µM (inactive) | 65.2 µM (inactive) | > 100 µM (inactive) | > 100 µM (inactive) | > 100 µM (inactive) | 63.1 µM (inactive) | > 100 µM (inactive) | > 100 µM (inactive) | > 100 µM (inactive) | > 100 µM (inactive) | > 91.2 µM (inactive) | 27.2 µM (inactive) | > 75.9 µM (inactive) | 28 µM (inactive) | > 100 µM (inactive) | > 48 µM (inactive) | > 100 µM (inactive) | > 100 µM (inactive) | > 66.4 µM (inactive) | > 100 µM (inactive) |
| [N-]=[N+]=Nc1c(C=O)c(=O)n2c3c(cccc13)CCC2 | 3.15 µM (inactive) | 2.75 µM (inactive) | 11.5 µM (inactive) | 5.81 µM (inactive) | 13.6 µM (inactive) | 0.778 µM (active) | 19 µM (inactive) | 2.94 µM (inactive) | 12.8 µM (inactive) | 1.84 µM (inactive) | 16.1 µM (inactive) | 2.82 µM (inactive) | > 10 µM (inactive) | 0.608 µM (active) | 17.5 µM (inactive) | 4.26 µM (inactive) | 3.44 µM (inactive) | 20 µM (inactive) | 10.3 µM (inactive) | 11.9 µM (inactive) |
| COC(=O)[C@@H]1[C@H]2CC[C@]3(C)[C@@H](OC(C)=O)CC[C@H]3[C@@H]2CC[C@H]1C1(C)SCCS1 | 19.6 µM (inactive) | 27 µM (inactive) | 34.7 µM (inactive) | 22 µM (inactive) | 57.5 µM (inactive) | 36.9 µM (inactive) | 53.6 µM (inactive) | 41.6 µM (inactive) | 28.2 µM (inactive) | 18.9 µM (inactive) | 37 µM (inactive) | 36.1 µM (inactive) | 19 µM (inactive) | 18.2 µM (inactive) | 28.6 µM (inactive) | 37.2 µM (inactive) | 37.2 µM (inactive) | 50.5 µM (inactive) | 19.4 µM (inactive) | 49.2 µM (inactive) |
| O=C(N/N=C/C=C/c1ccc([N+](=O)[O-])o1)c1ccc(Br)s1 | 3.48 µM (inactive) | 16.3 µM (inactive) | 22.4 µM (inactive) | 20.6 µM (inactive) | 32.1 µM (inactive) | 9.2 µM (inactive) | > 100 µM (inactive) | 27.9 µM (inactive) | 23.2 µM (inactive) | 14.9 µM (inactive) | 26.8 µM (inactive) | 24.5 µM (inactive) | 23.3 µM (inactive) | 34.1 µM (inactive) | 17.8 µM (inactive) | 14.9 µM (inactive) | 16.3 µM (inactive) | 24 µM (inactive) | 19.9 µM (inactive) | 6.76 µM (inactive) |
| Cc1ccc2c(c1)-c1c(C#N)c(N)nc(-c3ccc(Cl)cc3)c1CCS2(=O)=O | 4.45 µM (inactive) | 5.37 µM (inactive) | 20.6 µM (inactive) | 1.65 µM (inactive) | 17.2 µM (inactive) | 1.12 µM (active) | 8.38 µM (inactive) | 5.97 µM (inactive) | 4.37 µM (inactive) | 5.07 µM (inactive) | 3.77 µM (inactive) | 2.8 µM (inactive) | 8.67 µM (inactive) | 0.207 µM (active) | 3.48 µM (inactive) | 7.23 µM (inactive) | 8.77 µM (inactive) | 13.2 µM (inactive) | 10.1 µM (inactive) | 5.43 µM (inactive) |
